# Measurements from patent publication US9738634B2, “Heterocyclic amide compound and herbicide” (SYNGENTA PARTICIPATIONS AG, priority 2013, dated 2017).
# What was measured:
# Assay type in all cases: in vivo
# Settings in all cases: treatment dosage 320 g/ha
# wild oat [1] = experiment: Test Example 3: weedkilling efficacy through soil treatment; G: wild oat
# Outline: (§1)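 Crop and weed responses were judged three weeks after a uniform surface spray of the water-diluted emulsion at the given g/ha rate. Seeds sat beneath about 1.5 cm of sterilized diluvial soil, and boxes stood in a greenhouse at 25 to 30° C.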
# common wind-grass [2] = experiment: Test Example 4: weedkilling efficacy by foliar treatment; J: common wind-grass
# Outline: (§2)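 Seeds are spot-sown into sterilized diluvial soil and covered with about 1.5 cm of soil. After 14 days' greenhouse growth at 25 to 30° C, plants are sprayed on stems and leaves with diluted emulsion at the stated g/ha rate, then scored at 3 weeks.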
# beet [3] = experiment: Test Example 4: foliar treatment, effect on crop; f: beet
# Outline: as §2
# Italian ryegrass [4] = experiment: Test Example 4: weedkilling efficacy by foliar treatment; I: Italian ryegrass
# Outline: as §2
# common wind-grass [5] = experiment: Test Example 3: weedkilling efficacy through soil treatment; J: common wind-grass
# Outline: as §1
# redroot pigweed [6] = experiment: Test Example 4: weedkilling efficacy by foliar treatment; L: redroot pigweed
# Outline: as §2
# barnyard grass [7] = experiment: Test Example 2: weedkilling efficacy, growth period weed treatment in the submerged state; A: barnyard grass
# Outline: (§3)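 Seedlings at 1-2 leaves in 4 cm-deep submerged alluvial soil received emulsion formulations on the water surface, dosed per hectare; effects were judged 3 weeks on.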
# black-grass [8] = experiment: Test Example 4: weedkilling efficacy by foliar treatment; H: black-grass
# Outline: as §2
# birds-eye speedwell [9] = experiment: Test Example 3: weedkilling efficacy through soil treatment; p: birds-eye speedwell
# Outline: as §1
# corn [10] = experiment: Test Example 3: soil treatment, effect on crop; c: corn
# Outline: as §1
# birds-eye speedwell [11] = experiment: Test Example 4: weedkilling efficacy by foliar treatment; p: birds-eye speedwell
# Outline: as §2
# rapeseed [12] = experiment: Test Example 3: soil treatment, effect on crop; g: rapeseed
# Outline: as §1
# catchweed [13] = experiment: Test Example 3: weedkilling efficacy through soil treatment; O: catchweed
# Outline: as §1
# redroot pigweed [14] = experiment: Test Example 3: weedkilling efficacy through soil treatment; L: redroot pigweed
# Outline: as §1
# oval-leafed pondweed [15] = experiment: Test Example 2: weedkilling efficacy, growth period weed treatment in the submerged state; C: oval-leafed pondweed
# Outline: as §3
# Indian mallow [16] = experiment: Test Example 4: weedkilling efficacy by foliar treatment; K: Indian mallow
# Outline: as §2
# bulrush [17] = experiment: Test Example 1: weedkilling efficacy, preemergent weed treatment in the submerged state; B: bulrush
# Outline: (§4)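 Submerged pre-emergence treatment, water-surface application of compound emulsion at g/ha dosages; 4 cm flooded alluvial soil, weeds sown and 2.5-leaf rice transplanted same day. Rated after 3 weeks, greenhouse.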
# chickweed [18] = experiment: Test Example 4: weedkilling efficacy by foliar treatment; N: chickweed
# Outline: as §2
# wheat [19] = experiment: Test Example 3: soil treatment, effect on crop; e: wheat
# Outline: as §1
# green foxtail [20] = experiment: Test Example 3: weedkilling efficacy through soil treatment; E: green foxtail
# Outline: as §1
# fig-leafed goosefoot [21] = experiment: Test Example 3: weedkilling efficacy through soil treatment; M: fig-leafed goosefoot
# Outline: as §1
# green foxtail [22] = experiment: Test Example 4: weedkilling efficacy by foliar treatment; E: green foxtail
# Outline: as §2
# rapeseed [23] = experiment: Test Example 4: foliar treatment, effect on crop; g: rapeseed
# Outline: as §2
# barnyard grass [24] = experiment: Test Example 3: weedkilling efficacy through soil treatment; F: barnyard grass
# Outline: as §1
# Indian mallow [25] = experiment: Test Example 3: weedkilling efficacy through soil treatment; K: Indian mallow
# Outline: as §1
# crabgrass [26] = experiment: Test Example 4: weedkilling efficacy by foliar treatment; D: crabgrass
# Outline: as §2
# black-grass [27] = experiment: Test Example 3: weedkilling efficacy through soil treatment; H: black-grass
# Outline: as §1
# soybean [28] = experiment: Test Example 3: soil treatment, effect on crop; d: soybean
# Outline: as §1
# wheat [29] = experiment: Test Example 4: foliar treatment, effect on crop; e: wheat
# Outline: as §2
# fig-leafed goosefoot [30] = experiment: Test Example 4: weedkilling efficacy by foliar treatment; M: fig-leafed goosefoot
# Outline: as §2
# chickweed [31] = experiment: Test Example 3: weedkilling efficacy through soil treatment; N: chickweed
# Outline: as §1
# Italian ryegrass [32] = experiment: Test Example 3: weedkilling efficacy through soil treatment; I: Italian ryegrass
# Outline: as §1
# oval-leafed pondweed [33] = experiment: Test Example 1: weedkilling efficacy, preemergent weed treatment in the submerged state; C: oval-leafed pondweed
# Outline: as §4
# directly sown rice [34] = experiment: Test Example 4: foliar treatment, effect on crop; b: directly sown rice
# Outline: as §2
# corn [35] = experiment: Test Example 4: foliar treatment, effect on crop; c: corn
# Outline: as §2
# barnyard grass [36] = experiment: Test Example 1: weedkilling efficacy, preemergent weed treatment in the submerged state; A: barnyard grass
# Outline: as §4
# barnyard grass [37] = experiment: Test Example 4: weedkilling efficacy by foliar treatment; F: barnyard grass
# Outline: as §2
# crabgrass [38] = experiment: Test Example 3: weedkilling efficacy through soil treatment; D: crabgrass
# Outline: as §1
# wild oat [39] = experiment: Test Example 4: weedkilling efficacy by foliar treatment; G: wild oat
# Outline: as §2
# soybean [40] = experiment: Test Example 4: foliar treatment, effect on crop; d: soybean
# Outline: as §2
# bulrush [41] = experiment: Test Example 2: weedkilling efficacy, growth period weed treatment in the submerged state; B: bulrush
# Outline: as §3
# directly sown rice [42] = experiment: Test Example 3: soil treatment, effect on crop; b: directly sown rice
# Outline: as §1
# transplanted rice = experiment: Test Example 1: preemergent weed treatment in the submerged state, effect on crop; a: transplanted rice
# Outline: as §4
# beet [43] = experiment: Test Example 3: soil treatment, effect on crop; f: beet
# Outline: as §1
# catchweed [44] = experiment: Test Example 4: weedkilling efficacy by foliar treatment; O: catchweed
# Outline: as §2
compound,measurement,setting,value
CC1=C(c2ccccc2)C(=O)N(C(C)(C)C(=O)Nc2cc(C)cc(F)n2)CO1 [B-2-38],G (wild oat) weedkilling efficacy grade,wild oat [1],"5 (weed kill ratio 90% or more, (practically complete withering))"
same,J (common wind-grass) weedkilling efficacy grade,common wind-grass [2],"5 (weed kill ratio 90% or more, (practically complete withering))"
same,f (beet) effect on crop grade,beet [3],"4 (weed kill ratio 70% or more, less than 90%)"
same,I (Italian ryegrass) weedkilling efficacy grade,Italian ryegrass [4],"5 (weed kill ratio 90% or more, (practically complete withering))"
same,J (common wind-grass) weedkilling efficacy grade,common wind-grass [5],"5 (weed kill ratio 90% or more, (practically complete withering))"
same,L (redroot pigweed) weedkilling efficacy grade,redroot pigweed [6],"4 (weed kill ratio 70% or more, less than 90%)"
same,A (barnyard grass) weedkilling efficacy grade,barnyard grass [7],"5 (weed kill ratio 90% or more, (practically complete withering))"
same,H (black-grass) weedkilling efficacy grade,black-grass [8],"5 (weed kill ratio 90% or more, (practically complete withering))"
same,P (birds-eye speedwell) weedkilling efficacy grade,birds-eye speedwell [9],"5 (weed kill ratio 90% or more, (practically complete withering))"
same,c (corn) effect on crop grade,corn [10],"1 (weed kill ratio 5% or more, less than 20%)"
same,P (birds-eye speedwell) weedkilling efficacy grade,birds-eye speedwell [11],"4 (weed kill ratio 70% or more, less than 90%)"
same,g (rapeseed) effect on crop grade,rapeseed [12],"4 (weed kill ratio 70% or more, less than 90%)"
same,O (catchweed) weedkilling efficacy grade,catchweed [13],"5 (weed kill ratio 90% or more, (practically complete withering))"
same,L (redroot pigweed) weedkilling efficacy grade,redroot pigweed [14],"3 (weed kill ratio 40% or more, less than 70%)"
same,C (oval-leafed pondweed) weedkilling efficacy grade,oval-leafed pondweed [15],"5 (weed kill ratio 90% or more, (practically complete withering))"
same,K (Indian mallow) weedkilling efficacy grade,Indian mallow [16],"4 (weed kill ratio 70% or more, less than 90%)"
same,B (bulrush) weedkilling efficacy grade,bulrush [17],"5 (weed kill ratio 90% or more, (practically complete withering))"
same,N (chickweed) weedkilling efficacy grade,chickweed [18],"4 (weed kill ratio 70% or more, less than 90%)"
same,e (wheat) effect on crop grade,wheat [19],0 (weed kill ratio 5% or less (practically no effect))
same,E (green foxtail) weedkilling efficacy grade,green foxtail [20],"5 (weed kill ratio 90% or more, (practically complete withering))"
same,M (fig-leafed goosefoot) weedkilling efficacy grade,fig-leafed goosefoot [21],"4 (weed kill ratio 70% or more, less than 90%)"
same,E (green foxtail) weedkilling efficacy grade,green foxtail [22],"5 (weed kill ratio 90% or more, (practically complete withering))"
same,g (rapeseed) effect on crop grade,rapeseed [23],"4 (weed kill ratio 70% or more, less than 90%)"
same,F (barnyard grass) weedkilling efficacy grade,barnyard grass [24],"5 (weed kill ratio 90% or more, (practically complete withering))"
same,K (Indian mallow) weedkilling efficacy grade,Indian mallow [25],"1 (weed kill ratio 5% or more, less than 20%)"
same,D (crabgrass) weedkilling efficacy grade,crabgrass [26],"5 (weed kill ratio 90% or more, (practically complete withering))"
same,H (black-grass) weedkilling efficacy grade,black-grass [27],"5 (weed kill ratio 90% or more, (practically complete withering))"
same,d (soybean) effect on crop grade,soybean [28],"4 (weed kill ratio 70% or more, less than 90%)"
same,e (wheat) effect on crop grade,wheat [29],"1 (weed kill ratio 5% or more, less than 20%)"
same,M (fig-leafed goosefoot) weedkilling efficacy grade,fig-leafed goosefoot [30],"4 (weed kill ratio 70% or more, less than 90%)"
same,N (chickweed) weedkilling efficacy grade,chickweed [31],"4 (weed kill ratio 70% or more, less than 90%)"
same,I (Italian ryegrass) weedkilling efficacy grade,Italian ryegrass [32],"5 (weed kill ratio 90% or more, (practically complete withering))"
same,C (oval-leafed pondweed) weedkilling efficacy grade,oval-leafed pondweed [33],"5 (weed kill ratio 90% or more, (practically complete withering))"
same,b (directly sown rice) effect on crop grade,directly sown rice [34],"5 (weed kill ratio 90% or more, (practically complete withering))"
same,c (corn) effect on crop grade,corn [35],"5 (weed kill ratio 90% or more, (practically complete withering))"
same,A (barnyard grass) weedkilling efficacy grade,barnyard grass [36],"5 (weed kill ratio 90% or more, (practically complete withering))"
same,F (barnyard grass) weedkilling efficacy grade,barnyard grass [37],"5 (weed kill ratio 90% or more, (practically complete withering))"
same,D (crabgrass) weedkilling efficacy grade,crabgrass [38],"5 (weed kill ratio 90% or more, (practically complete withering))"
same,G (wild oat) weedkilling efficacy grade,wild oat [39],"5 (weed kill ratio 90% or more, (practically complete withering))"
same,d (soybean) effect on crop grade,soybean [40],"4 (weed kill ratio 70% or more, less than 90%)"
same,B (bulrush) weedkilling efficacy grade,bulrush [41],"5 (weed kill ratio 90% or more, (practically complete withering))"
same,b (directly sown rice) effect on crop grade,directly sown rice [42],"5 (weed kill ratio 90% or more, (practically complete withering))"
same,a (transplanted rice) effect on crop grade,transplanted rice,"3 (weed kill ratio 40% or more, less than 70%)"
same,f (beet) effect on crop grade,beet [43],"4 (weed kill ratio 70% or more, less than 90%)"
same,O (catchweed) weedkilling efficacy grade,catchweed [44],"4 (weed kill ratio 70% or more, less than 90%)"
